Assay results published in BindingDB's records for doi:10.1021/jm00142a026 (1981).

Target: Beta-1/Beta-2/Beta-3 adrenergic receptor (Rattus norvegicus, UniProt P10608+P18090+P26255)
Experiment: Binding affinity against Beta adrenergic receptor using [3H]dihydroalprenolol radioligand in rat brain homogenate

Sequence of Beta-1/Beta-2/Beta-3 adrenergic receptor (P18090 whole entry): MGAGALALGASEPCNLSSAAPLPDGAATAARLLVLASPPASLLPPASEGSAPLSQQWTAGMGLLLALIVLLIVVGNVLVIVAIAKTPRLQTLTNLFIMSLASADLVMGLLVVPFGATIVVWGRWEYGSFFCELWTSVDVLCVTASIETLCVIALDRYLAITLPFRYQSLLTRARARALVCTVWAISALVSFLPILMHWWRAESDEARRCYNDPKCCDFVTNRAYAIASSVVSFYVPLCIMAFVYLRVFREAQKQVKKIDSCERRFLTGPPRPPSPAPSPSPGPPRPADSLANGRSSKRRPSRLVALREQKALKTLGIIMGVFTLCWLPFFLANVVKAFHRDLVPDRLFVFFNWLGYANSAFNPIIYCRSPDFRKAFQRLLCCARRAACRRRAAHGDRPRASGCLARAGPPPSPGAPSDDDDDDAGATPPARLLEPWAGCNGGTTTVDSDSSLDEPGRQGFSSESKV
Sequence of Beta-1/Beta-2/Beta-3 adrenergic receptor (P26255 whole entry): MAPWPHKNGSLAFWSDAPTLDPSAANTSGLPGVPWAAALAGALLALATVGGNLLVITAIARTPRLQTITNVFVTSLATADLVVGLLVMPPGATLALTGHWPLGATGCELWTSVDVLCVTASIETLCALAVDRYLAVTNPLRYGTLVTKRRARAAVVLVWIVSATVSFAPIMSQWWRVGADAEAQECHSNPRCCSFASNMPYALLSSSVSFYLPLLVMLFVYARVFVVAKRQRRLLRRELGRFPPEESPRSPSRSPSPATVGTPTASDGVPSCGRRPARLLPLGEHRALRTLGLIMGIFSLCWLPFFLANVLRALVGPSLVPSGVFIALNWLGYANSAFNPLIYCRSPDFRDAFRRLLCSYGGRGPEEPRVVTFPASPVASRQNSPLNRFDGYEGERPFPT
Sequence of Beta-1/Beta-2/Beta-3 adrenergic receptor (P10608 whole entry): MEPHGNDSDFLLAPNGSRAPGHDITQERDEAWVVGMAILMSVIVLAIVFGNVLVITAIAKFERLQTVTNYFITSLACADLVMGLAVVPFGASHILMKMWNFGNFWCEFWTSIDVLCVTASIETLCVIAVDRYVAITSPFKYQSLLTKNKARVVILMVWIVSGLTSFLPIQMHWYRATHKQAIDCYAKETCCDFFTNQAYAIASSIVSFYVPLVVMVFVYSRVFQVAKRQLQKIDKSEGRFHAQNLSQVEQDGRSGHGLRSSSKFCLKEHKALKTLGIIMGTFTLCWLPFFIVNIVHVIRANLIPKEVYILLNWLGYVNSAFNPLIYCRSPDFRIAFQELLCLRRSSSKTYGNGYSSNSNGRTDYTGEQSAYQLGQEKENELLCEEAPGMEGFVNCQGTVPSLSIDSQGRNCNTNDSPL

| Structure (SMILES) | IC50 |
| --- | --- |
| CNCC(c1ccc(O)c(O)c1)S(=O)(=O)O (configuration not stated) | 110 µM |
| NCC(c1ccc(O)c(O)c1)S(=O)(=O)O (configuration not stated) | 130 µM |
